Measured values: US20060270685A1, “Anhydrous ziprasidone mesylate and a process for its preparation” (priority 2005, published 2006)
Counter-ions that a name gives are not always drawn.

Experiments:
[1] = Water uptake (hygroscopicity) after exposure to 80% relative humidity, Karl Fisher and XRD; type: physicochemical
Protocol: The present invention further provides non hygroscopic anhydrous ziprasidone mesylate. Anhydrous ziprasidone mesylate is tested for water uptake after exposure to 80% relative humidity, at room temperature for 7 days, as summarized in the following table:
X-Ray powder diffraction data were obtained using a SCINTAG powder X-Ray diffractometer model X'TRA equipped with a solid state detector. Copper radiation of 1.5418 Å was used. A round aluminum sample holder with zero background was used. All peak positions are within ±0.2 degrees two theta. Karl Fisher analysis was performed according to the known art.
Anhydrous ziprasidone mesylate, having a tabular, and equant morphology was exposed to 80% humidity for at least 7 days at room temperature. Before the exposure, the water content was 0.5% as measured by Karl Fisher. After 7 days at 80% humidity at RT the sample contained 0.6% water as measured by Karl Fisher. Thus, there was an increase of 0.1% in the water content.

[2] = when exposed to air (humidity); cited from earlier work
[3] = 80% RH, room temperature, 7 days

Crystal form (by XRD) [1, 3]: Anhydrous
water Content (By KF) [1, 3]: 0.6
change in the crystal form after the exposure ([1]; 80% humidity, at least 7 days, room temperature): No change in the crystal form
increase in the water content ([1]; 7 days at 80% humidity at RT vs before exposure): 0.1%
Crystal form (by XRD) ([1]; Initial, before exposure): Anhydrous
water Content (By KF) ([1]; Initial, before exposure): 0.5
water content as measured by Karl Fisher ([1]; after 7 days at 80% humidity at RT): 0.6%
water content as measured by Karl Fisher ([1]; before the exposure): 0.5%
SMILES: O=C1Cc2cc(CCN3CCN(c4nsc5ccccc45)CC3)c(Cl)cc2N1 [Anhydrous ziprasidone mesylate, ziprasidone mesylate]
hygroscopicity [2]: hygroscopic
